Assay results reported in PubChem BioAssay (NCI).
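Five concentrations, 48 hours, 96-well plates. TGI is the concentration that stops growth completely.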

Columns and labels:
Assay in all cases: inhibition of tumour cell growth, NCI panel, 48 h
786-0 renal = system: 786-0 renal
A498 renal = system: A498 renal
A549 NSCLC = system: A549 NSCLC
ACHN renal = system: ACHN renal
BT-549 breast = system: BT-549 breast
CAKI-1 renal = system: CAKI-1 renal
CCRF-CEM leukemia = system: CCRF-CEM leukemia
COLO 205 colon = system: COLO 205 colon
DU-145 prostate = system: DU-145 prostate
EKVX NSCLC = system: EKVX NSCLC
HCC-2998 colon = system: HCC-2998 colon
HCT-116 colon = system: HCT-116 colon
HCT-15 colon = system: HCT-15 colon
HL-60(TB) leukemia = system: HL-60(TB) leukemia
HOP-62 NSCLC = system: HOP-62 NSCLC
HOP-92 NSCLC = system: HOP-92 NSCLC
HS 578T breast = system: HS 578T breast
HT29 colon = system: HT29 colon
IGROV1 ovarian = system: IGROV1 ovarian
K-562 leukemia = system: K-562 leukemia
KM12 colon = system: KM12 colon
LOX IMVI melanoma = system: LOX IMVI melanoma
M14 melanoma = system: M14 melanoma
MALME-3M melanoma = system: MALME-3M melanoma
MCF7 breast = system: MCF7 breast
MDA-MB-231 breast = system: MDA-MB-231 breast
MDA-MB-435 = system: MDA-MB-435
MDA-N = system: MDA-N
MOLT-4 leukemia = system: MOLT-4 leukemia
NCI-H226 lung = system: NCI-H226 lung
NCI-H23 lung = system: NCI-H23 lung
NCI-H460 lung = system: NCI-H460 lung
NCI-H522 lung = system: NCI-H522 lung
NCI/ADR-RES ovarian = system: NCI/ADR-RES ovarian
OVCAR-3 ovarian = system: OVCAR-3 ovarian
OVCAR-4 ovarian = system: OVCAR-4 ovarian
OVCAR-5 ovarian = system: OVCAR-5 ovarian
OVCAR-8 ovarian = system: OVCAR-8 ovarian
PC-3 prostate = system: PC-3 prostate
RPMI-8226 leukemia = system: RPMI-8226 leukemia
RXF 393 renal = system: RXF 393 renal
SF-268 CNS = system: SF-268 CNS
SF-295 CNS = system: SF-295 CNS
SF-539 CNS = system: SF-539 CNS
SK-MEL-2 melanoma = system: SK-MEL-2 melanoma
SK-MEL-28 melanoma = system: SK-MEL-28 melanoma
SK-MEL-5 melanoma = system: SK-MEL-5 melanoma
SK-OV-3 ovarian = system: SK-OV-3 ovarian
SN12C renal = system: SN12C renal
SNB-19 CNS = system: SNB-19 CNS
SNB-75 CNS = system: SNB-75 CNS
SR leukemia = system: SR leukemia
SW-620 colon = system: SW-620 colon
T-47D breast = system: T-47D breast
TK-10 renal = system: TK-10 renal
U251 CNS = system: U251 CNS
UACC-257 melanoma = system: UACC-257 melanoma
UACC-62 melanoma = system: UACC-62 melanoma
UO-31 renal = system: UO-31 renal

COc1ccc(-c2cc(-c3ccc(Nc4ccnc5cc(C(F)(F)F)ccc45)cc3)[nH]c(=O)c2C#N)cc1
TGI (786-0 renal): > 100 µM
TGI (A498 renal): > 55.1 µM
TGI (A549 NSCLC): > 100 µM
TGI (ACHN renal): > 100 µM
TGI (BT-549 breast): > 94.9 µM
TGI (CAKI-1 renal): > 100 µM
TGI (CCRF-CEM leukemia): > 100 µM
TGI (COLO 205 colon): > 63.7 µM
TGI (DU-145 prostate): > 100 µM
TGI (EKVX NSCLC): > 100 µM
TGI (HCC-2998 colon): > 100 µM
TGI (HCT-116 colon): > 100 µM
TGI (HCT-15 colon): > 100 µM
TGI (HL-60(TB) leukemia): > 100 µM
TGI (HOP-62 NSCLC): > 41.1 µM
TGI (HOP-92 NSCLC): > 100 µM
TGI (HS 578T breast): 49.6 µM
TGI (HT29 colon): > 80.4 µM
TGI (IGROV1 ovarian): > 100 µM
TGI (K-562 leukemia): > 100 µM
TGI (KM12 colon): > 100 µM
TGI (LOX IMVI melanoma): > 100 µM
TGI (M14 melanoma): > 100 µM
TGI (MALME-3M melanoma): > 100 µM
TGI (MCF7 breast): > 100 µM
TGI (MDA-MB-231 breast): > 82.9 µM
TGI (MDA-MB-435): > 100 µM
TGI (MDA-N): 98.5 µM
TGI (MOLT-4 leukemia): > 100 µM
TGI (NCI-H226 lung): > 70.9 µM
TGI (NCI-H23 lung): > 60.8 µM
TGI (NCI-H460 lung): > 100 µM
TGI (NCI-H522 lung): > 100 µM
TGI (NCI/ADR-RES ovarian): > 100 µM
TGI (OVCAR-3 ovarian): > 100 µM
TGI (OVCAR-4 ovarian): > 100 µM
TGI (OVCAR-5 ovarian): > 100 µM
TGI (OVCAR-8 ovarian): > 100 µM
TGI (PC-3 prostate): > 100 µM
TGI (RPMI-8226 leukemia): > 100 µM
TGI (RXF 393 renal): > 53.5 µM
TGI (SF-268 CNS): > 88.6 µM
TGI (SF-295 CNS): > 57.6 µM
TGI (SF-539 CNS): > 68.9 µM
TGI (SK-MEL-2 melanoma): > 100 µM
TGI (SK-MEL-28 melanoma): > 100 µM
TGI (SK-MEL-5 melanoma): > 100 µM
TGI (SK-OV-3 ovarian): > 47.4 µM
TGI (SN12C renal): > 100 µM
TGI (SNB-19 CNS): 56.7 µM
TGI (SNB-75 CNS): 62.2 µM
TGI (SR leukemia): > 100 µM
TGI (SW-620 colon): > 100 µM
TGI (T-47D breast): > 100 µM
TGI (TK-10 renal): > 68.2 µM
TGI (U251 CNS): > 70.9 µM
TGI (UACC-257 melanoma): > 100 µM
TGI (UACC-62 melanoma): > 100 µM

COc1ccc(NCc2c(O)ccc3ccccc23)cc1
TGI (786-0 renal): 32 µM
TGI (A498 renal): > 100 µM
TGI (A549 NSCLC): > 100 µM
TGI (ACHN renal): 31.2 µM
TGI (BT-549 breast): 43.5 µM
TGI (CAKI-1 renal): 67.1 µM
TGI (COLO 205 colon): 94.3 µM
TGI (DU-145 prostate): > 100 µM
TGI (EKVX NSCLC): > 100 µM
TGI (HCT-116 colon): > 100 µM
TGI (HCT-15 colon): > 100 µM
TGI (HOP-62 NSCLC): > 100 µM
TGI (HOP-92 NSCLC): 29.6 µM
TGI (HS 578T breast): > 100 µM
TGI (HT29 colon): > 100 µM
TGI (IGROV1 ovarian): > 100 µM
TGI (K-562 leukemia): 38.3 µM
TGI (KM12 colon): > 100 µM
TGI (LOX IMVI melanoma): 29.4 µM
TGI (M14 melanoma): 47.6 µM
TGI (MALME-3M melanoma): 38.8 µM
TGI (MCF7 breast): > 100 µM
TGI (MDA-MB-231 breast): > 100 µM
TGI (MDA-MB-435): > 100 µM
TGI (MDA-N): > 100 µM
TGI (NCI-H23 lung): > 100 µM
TGI (NCI-H460 lung): > 100 µM
TGI (NCI-H522 lung): 28 µM
TGI (NCI/ADR-RES ovarian): > 100 µM
TGI (OVCAR-3 ovarian): > 100 µM
TGI (OVCAR-4 ovarian): > 100 µM
TGI (OVCAR-5 ovarian): 49.3 µM
TGI (OVCAR-8 ovarian): 29.2 µM
TGI (PC-3 prostate): 49.9 µM
TGI (RPMI-8226 leukemia): 63.6 µM
TGI (RXF 393 renal): 35 µM
TGI (SF-268 CNS): 40.7 µM
TGI (SF-295 CNS): > 100 µM
TGI (SF-539 CNS): 25.9 µM
TGI (SK-MEL-2 melanoma): > 100 µM
TGI (SK-MEL-28 melanoma): 78.3 µM
TGI (SK-MEL-5 melanoma): 49.1 µM
TGI (SK-OV-3 ovarian): > 100 µM
TGI (SN12C renal): > 100 µM
TGI (SNB-19 CNS): > 100 µM
TGI (SNB-75 CNS): > 100 µM
TGI (SR leukemia): 39.5 µM
TGI (SW-620 colon): 49.6 µM
TGI (T-47D breast): 55.1 µM
TGI (TK-10 renal): 38.6 µM
TGI (U251 CNS): > 100 µM
TGI (UACC-257 melanoma): 44.5 µM
TGI (UACC-62 melanoma): > 100 µM
TGI (UO-31 renal): > 100 µM
